According to patent publication US20110009381A1, “SOLUBILIZED THIAZOLOPYRIDINES” (Sirtis Pharmaceuticals, Inc., priority 2007, published 2011):

Target: T1, SIRT1 (Homo sapiens, UniProt Q96EB6)
T1 sequence (Q96EB6 1-747): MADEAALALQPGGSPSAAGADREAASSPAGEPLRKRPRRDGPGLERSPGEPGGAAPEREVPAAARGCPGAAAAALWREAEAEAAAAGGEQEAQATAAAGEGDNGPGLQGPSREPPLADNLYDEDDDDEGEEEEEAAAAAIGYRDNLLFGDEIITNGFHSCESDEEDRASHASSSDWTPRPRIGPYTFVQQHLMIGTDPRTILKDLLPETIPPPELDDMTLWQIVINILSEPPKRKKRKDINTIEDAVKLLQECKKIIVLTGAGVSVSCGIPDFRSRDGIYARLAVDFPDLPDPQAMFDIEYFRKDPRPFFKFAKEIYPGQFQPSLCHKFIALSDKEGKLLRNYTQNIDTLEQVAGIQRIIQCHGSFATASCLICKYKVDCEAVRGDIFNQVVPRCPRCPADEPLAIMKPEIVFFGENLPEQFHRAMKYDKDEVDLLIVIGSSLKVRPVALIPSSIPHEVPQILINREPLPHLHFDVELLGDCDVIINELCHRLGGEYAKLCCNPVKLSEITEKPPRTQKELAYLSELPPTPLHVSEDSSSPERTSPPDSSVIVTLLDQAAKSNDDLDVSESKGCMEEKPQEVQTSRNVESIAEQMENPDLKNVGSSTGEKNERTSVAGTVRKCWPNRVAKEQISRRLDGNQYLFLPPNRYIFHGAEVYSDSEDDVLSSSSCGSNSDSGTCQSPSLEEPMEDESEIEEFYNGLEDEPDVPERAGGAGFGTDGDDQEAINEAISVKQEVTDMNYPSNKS
Assay: Mass spectrometry based assay to identify modulators of SIRT1 activity (deacetylation of p53-based acetylated peptide substrate)
Format: biochemical
Conditions: 10 nM SIRT1, 0.5 μM peptide substrate, 120 μM βNAD+, 25 minutes at 25° C.; for EC1.5: SIRT1 activation
Excerpt: A mass spectrometry based assay was used to identify modulators of SIRT1 activity. The mass spectrometry based assay utilizes a peptide having 20 amino acid residues as follows: Ac-EE-K(biotin)-GQSTSSHSK(Ac)NleSTEG-K(5TMR)-EE-NH2 (SEQ ID NO: 1) wherein K(Ac) is an acetylated lysine residue and Nle is a norleucine. The peptide is labeled with the fluorophore 5TMR (excitation 540 nm/emission 580 nm) at the C-terminus. The sequence of the peptide substrate is based on p53 with several modifications. In addition, the methionine residue naturally present in the sequence was replaced with the norleucine because the methionine may be susceptible to oxidation during synthesis and purification.
The mass spectrometry assay is conducted as follows: 0.5 μM peptide substrate and 120 μM βNAD^+ is incubated with 10 nM SIRT1 for 25 minutes at 25° C. in a reaction buffer (50 mM Tris-acetate pH 8, 137 mM NaCl, 2.7 mM KCl, 1 mM MgCl2, 5 mM DTT, 0.05% BSA). Test compounds may be added to the reaction as described above. The SirT1 gene is cloned into a T7-promoter containing vector and transformed into BL21(DE3). After the 25 minute incubation with SIRT1, 10 μL of 10% formic acid is added to stop the reaction. Reactions are sealed and frozen for later mass spec analysis. Determination of the mass of the substrate peptide allows for precise determination of the degree of acetylation (i.e. starting material) as compared to deacetylated peptide (product).
A control for inhibition of sirtuin activity is conducted by adding 1 μL of 500 mM nicotinamide as a negative control at the start of the reaction (e.g., permits determination of maximum sirtuin inhibition). A control for activation of sirtuin activity is conducted using 10 nM of sirtuin protein, with 1 μL of DMSO in place of compound, to determine the amount of deacetylation of the substrate at a given timepoint within the linear range of the assay. This timepoint is the same as that used for test compounds and, within the linear range, the endpoint represents a change in velocity.
For the above assay, SIRT1 protein was expressed and purified as follows. The SirT1 gene was cloned into a T7-promoter containing vector and transformed into BL21(DE3). The protein was expressed by induction with 1 mM IPTG as an N-terminal His-tag fusion protein at 18° C. overnight and harvested at 30,000×g. Cells were lysed with lysozyme in lysis buffer (50 mM Tris-HCl, 2 mM Tris[2-carboxyethyl]phosphine (TCEP), 10 μM ZnCl2, 200 mM NaCl) and further treated with sonication for 10 min for complete lysis. The protein was purified over a Ni-NTA column (Amersham) and fractions containing pure protein were pooled, concentrated and run over a sizing column (Sephadex S200 26/60 global). The peak containing soluble protein was collected and run on an Ion-exchange column (MonoQ). Gradient elution (200 mM-500 mM NaCl) yielded pure protein. This protein was concentrated and dialyzed against dialysis buffer (20 mM Tris-HCl, 2 mM TCEP) overnight. The protein was aliquoted and frozen at −80° C. until further use.
Sirtuin modulating compounds that activated SIRT1 were identified using the assay described above and are shown below in Table 1. The EC1-5 values for the activating compounds are represented by A′ (EC1.5<250 nM), A (EC1.5≧250 nM and ≦1 uM), B (EC1.5>1 and ≦10 uM), or C (EC1.5>10 uM). The percent maximum fold activation is represented by A (Fold activation≧300%), B (Fold Activation≧150% and <300%), or C (Fold Activation<150%).

SMILES | FOLD ACT. (percent maximum fold activation) | EC1.5
O=C(Nc1ccccc1-c1nc2cccnc2s1)c1cc(NC2CCOC2=O)nc(-c2ccccc2)n1 (stereo not drawn) [Compound 91] | A (Fold activation≧300%) | A′ (EC1.5<250 nM)
O=C(Nc1ccccc1-c1nc2cccnc2s1)c1cc(N[C@@H]2CCCNC2)nc(-c2ccccc2)n1 [Compound 95] | A (Fold activation≧300%) | A′ (EC1.5<250 nM)
CN(C)CCNc1cc(C(=O)Nc2ccccc2-c2nc3cccnc3s2)nc(-c2ccccc2)n1 [Compound 9] | A (Fold activation≧300%) | A′ (EC1.5<250 nM)
O=C(Nc1ccccc1-c1nc2cccnc2s1)c1cc(OC[C@@H](O)CO)nc(-c2ccccc2)n1 [Compound 108] | B (Fold Activation≧150% and <300%) | A′ (EC1.5<250 nM)
COCCN1CCN(c2cc(C(=O)Nc3ccccc3-c3nc4ccncc4s3)nc(-c3ccccc3)n2)CC1 [Compound 25] | A (Fold activation≧300%) | A′ (EC1.5<250 nM)
O=C(Nc1ccccc1-c1nc2cccnc2s1)c1cc(NCc2ccncc2)nc(-c2ccccc2)n1 [Compound 59] | A (Fold activation≧300%) | A (EC1.5≧250 nM and ≦1 uM)
COCCN(C)CCOc1cc(C(=O)Nc2ccccc2-c2nc3cccnc3s2)nc(-c2ccccc2)c1 [Compound 50] | A (Fold activation≧300%) | A′ (EC1.5<250 nM)
CCCCNc1cc(C(=O)Nc2ccccc2-c2nc3cccnc3s2)nc(-c2ccccc2)n1 [Compound 42] | C (Fold Activation<150%) | C (EC1.5>10 uM)
CNCCNc1cc(C(=O)Nc2ccccc2-c2nc3cccnc3s2)nc(-c2ccccc2)n1 [Compound 121] | A (Fold activation≧300%) | A′ (EC1.5<250 nM)
O=C(Nc1ccccc1-c1nc2ccncc2s1)c1cc(N2CCOCC2)nc(-c2ccccc2)n1 [Compound 22] | A (Fold activation≧300%) | A (EC1.5≧250 nM and ≦1 uM)
O=C(Nc1ccccc1-c1nc2cccnc2s1)c1cc(N[C@H]2CCCNC2)nc(-c2ccccc2)n1 [Compound 85] | A (Fold activation≧300%) | A (EC1.5≧250 nM and ≦1 uM)
CS(=O)(=O)NCCOc1cc(C(=O)Nc2ccccc2-c2nc3cccnc3s2)nc(-c2ccccc2)n1 [Compound 122] | B (Fold Activation≧150% and <300%) | A (EC1.5≧250 nM and ≦1 uM)
O=C(Nc1ccccc1-c1nc2cccnc2s1)c1cc(OCCN2CCS(=O)(=O)CC2)cc(-c2ccccc2)n1 [Compound 7] | A (Fold activation≧300%) | A′ (EC1.5<250 nM)
O=C(Nc1ccccc1-c1nc2cccnc2s1)c1cc(N2CCCCC2)nc(-c2ccccc2)n1 [Compound 21] | C (Fold Activation<150%) | C (EC1.5>10 uM)
C[C@@H]1CN(c2cc(C(=O)Nc3ccccc3-c3nc4cccnc4s3)nc(-c3ccccc3)n2)C[C@H](C)O1 [Compound 70] | B (Fold Activation≧150% and <300%) | A (EC1.5≧250 nM and ≦1 uM)
COCCN1CCN(CCOc2cc(C(=O)Nc3ccccc3-c3nc4cccnc4s3)nc(-c3ccccc3)c2)CC1 [Compound 12] | A (Fold activation≧300%) | A′ (EC1.5<250 nM)

Results, then the compound that gave them:

FOLD ACT. (percent maximum fold activation) | EC1.5 | SMILES
A (Fold activation≧300%) | A (EC1.5≧250 nM and ≦1 uM) | O=C(O)CCNc1cc(C(=O)Nc2ccccc2-c2nc3cccnc3s2)nc(-c2ccccc2)n1 [Compound 44]
A (Fold activation≧300%) | A′ (EC1.5<250 nM) | C[C@@H]1CN(CCOc2cc(C(=O)Nc3ccccc3-c3nc4cccnc4s3)nc(-c3ccccc3)c2)C[C@H](C)O1 [Compound 36]
A (Fold activation≧300%) | A (EC1.5≧250 nM and ≦1 uM) | O=C(Nc1ccccc1-c1nc2ccncc2s1)c1cc(NCCN2CCOCC2)nc(-c2ccccc2)n1 [Compound 30]
A (Fold activation≧300%) | A′ (EC1.5<250 nM) | COCCN1CCN(c2cc(C(=O)Nc3ccccc3-c3nc4cccnc4s3)nc(-c3ccccc3)n2)CC1 [Compound 3]
A (Fold activation≧300%) | A (EC1.5≧250 nM and ≦1 uM) | COCCN1CCN(c2cc(C(=O)Nc3ccccc3-c3nc4cccnc4s3)nc(OC)n2)CC1 [Compound 5]
A (Fold activation≧300%) | A′ (EC1.5<250 nM) | CC(C)N1CCN(c2cc(C(=O)Nc3ccccc3-c3nc4cccnc4s3)nc(-c3ccccc3)c2)CC1 [Compound 123]
C (Fold Activation<150%) | C (EC1.5>10 uM) | O=C(Nc1ccccc1-c1nc2cccnc2s1)c1cc(NC2CCN(c3ccccn3)CC2)nc(-c2ccccc2)n1 [Compound 115]
A (Fold activation≧300%) | A (EC1.5≧250 nM and ≦1 uM) | CC1(C)OCC(CNc2cc(C(=O)Nc3ccccc3-c3nc4cccnc4s3)nc(-c3ccccc3)n2)O1 (stereo not drawn) [Compound 96]
A (Fold activation≧300%) | A′ (EC1.5<250 nM) | CS(=O)(=O)CCNc1cc(C(=O)Nc2ccccc2-c2nc3cccnc3s2)nc(-c2ccccc2)n1 [Compound 46]
A (Fold activation≧300%) | A′ (EC1.5<250 nM) | COCCN(CCOC)c1cc(C(=O)Nc2ccccc2-c2nc3cccnc3s2)nc(-c2ccccc2)c1 [Compound 130]
A (Fold activation≧300%) | A′ (EC1.5<250 nM) | Cc1cccc(-c2nc(NCCN(C)C)cc(C(=O)Nc3ccccc3-c3nc4cccnc4s3)n2)c1 [Compound 112]
B (Fold Activation≧150% and <300%) | A (EC1.5≧250 nM and ≦1 uM) | O=C1CN(c2cc(C(=O)Nc3ccccc3-c3nc4cccnc4s3)nc(-c3ccccc3)n2)CCN1 [Compound 149]
A (Fold activation≧300%) | A′ (EC1.5<250 nM) | Cl.O=C(Nc1ccccc1-c1nc2cccnc2s1)c1cc(NCCN2CCCC2)nc(-c2ccccc2)n1 [Compound 62]
A (Fold activation≧300%) | A′ (EC1.5<250 nM) | Cc1cccc(-c2nc(NCCN3CCCCC3)cc(C(=O)Nc3ccccc3-c3nc4cccnc4s3)n2)c1 [Compound 132]
